Assay results taken from patent publication US4457919A, “Method of imparting immunomodulating, antiviral or antitumor activity” (Newport Pharmaceutical International, Inc., priority 1982, dated 1984).

Columns and labels:
[1] = system: viruses, immune response, leukemic lymphocytes; conditions: cited from earlier work
L1210 (mouse) = assay: Inhibition of growth of L1210 mouse leukemia cells; assay type: cell-based; conditions: 10 μg/ml
Method: (§1) Effect of Erythro-9-(2-Acetoxy-3-Nonyl)-Hypoxanthine on Growth of Tumor (Leukemia) Cells In Vivo
The activity of one of these agents, NPT 15458 as inhibitors of the growth of abnormal lymphocytes has been determined. […] A 40% inhibition of L-1210 cells was effected by NPT 15458 at 10 μg/ml.

8068 (Human) = assay: Inhibition of growth of 8068 human tumor (leukemia) cells; assay type: cell-based; conditions: 10 μg/ml
Source text: as §1

[2] = system: Vero Cells, Liver Homogenate, and Human Peripheral Blood Lymphocytes; assay: Conversion of pro-drugs to NPT 15392 by animal cells and tissues, stated in words; assay type: in vitro ADME; conditions: NPT 15458 compared with NPT 15457

| Compound | Previously demonstrated activity (in words) [1] | inhibition at 10 µg/mL (L1210 (mouse)) | inhibition at 10 µg/mL (8068 (Human)) | Conversion to NPT 15392 (in words) [2] |
| --- | --- | --- | --- | --- |
| CCCCCC[C@H]([C@H](C)O)n1cnc2c(=O)[nH]cnc21 (relative stereo) [NPT 15392, erythro-9-(2-hydroxy-3-nonyl)-hypoxanthine, reference compound] | antiviral immunomodulating and anti-tumor activity | – | – | – |
| CCCCCC[C@H]([C@H](C)OC(C)=O)n1cnc2c(=O)[nH]cnc21 (relative stereo) [NPT 15458, erythro-9-(2-Acetoxy-3-Nonyl)-Hypoxanthine] | – | 40% | 32% | appears to occur to a greater extent than the conversion of NPT 15457 to NPT 15392 |
